Reference: patent US20260191974A1, “B7-H3 TARGETING LIGANDS AND METHODS OF USE” (The University of North Carolina at Chapel Hill, priority 2022, published 2026)
pKd: −log10 of the molar value. “And” between values parts separate entries of the source, which are not always exact repeats. Equal entries are not always repeated. *1 amine or outer side, *2 acyl side, *3 side chain or, on linkers, in order; H or OH if unused. Where a SMILES comes first, the peptide text is derived from it. Bridges are numbered along the chain shown (N, C = ends). Where no end group is shown, it is not given here. [ ]: non-standard residue; d: D form. ξ: configuration not given here. mXylylene = c1cc(C[*:1])cc(C[*:2])c1; Nle = CCCC[C@H](N)C(=O)O; ξP = O=C(O)C1CCCN1

Legend:
B7-H3 [1] = target: T1, B7-H3 (Homo sapiens, UniProt Q5ZPR3); test: mRNA display validation assay of NGS hits against B7-H3; assay type: binding; conditions: naïve NNK10 library as a control
T1 sequence (Q5ZPR3 29-534): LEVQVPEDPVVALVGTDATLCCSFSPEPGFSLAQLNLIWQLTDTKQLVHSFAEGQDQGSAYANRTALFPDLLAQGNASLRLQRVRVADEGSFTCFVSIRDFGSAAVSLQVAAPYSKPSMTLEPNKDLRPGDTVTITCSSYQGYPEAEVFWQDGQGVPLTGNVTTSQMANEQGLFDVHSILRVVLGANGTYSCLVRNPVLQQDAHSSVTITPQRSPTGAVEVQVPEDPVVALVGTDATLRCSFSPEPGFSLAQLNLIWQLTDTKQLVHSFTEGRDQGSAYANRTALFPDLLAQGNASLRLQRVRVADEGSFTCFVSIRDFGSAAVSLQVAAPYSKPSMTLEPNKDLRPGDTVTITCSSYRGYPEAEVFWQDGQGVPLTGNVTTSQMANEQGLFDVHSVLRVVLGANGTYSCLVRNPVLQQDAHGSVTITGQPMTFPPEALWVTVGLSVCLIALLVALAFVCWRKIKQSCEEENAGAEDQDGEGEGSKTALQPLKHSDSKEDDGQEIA
Text: FIGS. 11A-11F. Dibromoxylene (DBX) mediated B7-H3 selection. (FIG. 11A) Selection schematic details the selection process for identifying binders against B7-H3 using DBX. (FIG. 11B) qPCR results of the DBX mediated B7-H3 selection. (FIG. 11C) Mean frequency vs. number of sequences. (FIG. 11D) NGS data of the selection hits from Selections (rounds 3 and 5), named sequences indicate sequences purchased for binding validation. (FIG. 11E) Validation assay identified hits from NGS data run through the selection process (outlined in (FIG. 11A)), with the naïve NNK10 library as a control.
A background screen against selection components is carried out prior to the selection against B7-H3 to remove non-specific binders. FIG. 11D includes sequences from NGS data with named sequences evaluated for binding validation. […] Exemplary DBX hit structures are shown in FIG. 12, with points of cargo attachment designated with arrows.

[2] = Serum stability in 50% fetal bovine serum; assay type: in vitro ADME; conditions: 37° C., read-out: peptide remaining intact
Method: Serum stability of JP3 and JP5 was assessed. Peptides (JP3 or JP5) were incubated in 50% fetal bovine serum (diluted in media) at 37° C. and samples were taken over a time course spanning 24 h. Samples were mixed with cold methanol to crash out serum protein, and the supernatant containing the peptides was collected and run on MS to determine the amount of peptide present at each time point.

[3] = system: Raji cells expressing murine B7-H3; test: Live imaging with GFP-tagged endosome/lysosome reporters in Raji cells expressing murine B7-H3; assay type: cell-based; conditions: JP3-PEG-TAMRA or JP5-PEG-TAMRA at 250 nM for 5 hours
Method: FIGS. 22A-22B. Live imaging of an example targeting ligand uptake in Raji cells expressing murine B7-H3 pre-incubated with GFP-tagged reporters for early (Rab5a) and late (Rab7a) endosomes or early (Lamp1) lysosomes. Cells were treated with JP3-PEG-TAMRA (FIG. 22A) or JP5-PEG-TAMRA (FIG. 22B) at 250 nM for 5 hours, cytospun with live cell imaging subsequently performed.
Live imaging of an example targeting ligand uptake in Raji cells expressing murine B7-H3 pre-incubated with GFP-tagged reporters for early (Rab5a) and late (Rab7a) endosomes or early (Lamp1) lysosomes is shown in FIG. 22A (JP3) and FIG. 22B (JP5).

human and murine B7-H3 [4] = test: Ka (M^-1s^-1)
Method: (§1) Table printed on a drawing sheet, FIG. 24C
Head of the field: Ka (M^-1s^-1)
(§2) The patent's description of the figure: FIGS. 24A-24C. SPR analysis of the selected peptides B1.1 and JP5. The B1.1 variant was analyzed at analyte concentrations of 7.5, 15, 30, 60, and 120 nM (FIG. 24A) and the JP5 variant was analyzed at analyte concentrations of 22.2, 66.6, 200, 600 and 1800 nM (FIG. 24B). (FIG. 24C) Binding kinetics of each peptide.
(§3) First copying reader's note: Bracket lines drawn over and under the sequences mark ring closures that the text cells cannot show: C-C above and Q-K below in oxidized B1.1, Q-K below only in reduced B1.1, and C-C above in JP5.
(§4) Where the first naming reader finds the target: passage: Surface plasmon resonance was used to evaluate binding of B1.1 and JP5 to both human and murine B7-H3 (FIGS. 24A-24C)

B7-H3 [5] = test: ka (M^-1s^-1)
Text: (§5) Table printed on a drawing sheet, FIG. 4F
Head of the field: ka (M^-1s^-1)
(§6) The patent's description of the figure: FIGS. 4A-4G. (FIG. 4A) Selection schematic detailing the selection process for identifying binders against B7-H3. (FIG. 4B) qPCR results of the mTG mediated B7-H3 selection. (FIG. 4C) B7-H3 selection results and complete NGS analysis of B7-H3 hits. (FIG. 4D) NGS data of the selection hits. […] Arrow indicates the peptide pursued for binding validation. (FIG. 4E) EIC ([M+2], 948.91 m/z) traces corresponding to the product of the mTG reaction with linear B1.1 peptide and the synthetic lactam, disulfide peptide. (FIG. 4F) Surface Plasmon Resonance (SPR) analysis of the selected peptide (B1.1), the Met9Nle variant, and the linear variant. […] The selected B1.1 and the Met9Nle variant were analyzed at analyte concentrations of 7.5, 15, 30, 60, 120 nM. The linear variant was analyzed at analyte concentrations of 50, 100, 200, 400, 800 nM. […] (FIG. 4G) Individual SPR curves. Fitted curve and raw data are shown.
(§7) First copying reader's note: Brackets drawn on the SELECTED and MET9NLE sequences join C to C (above) and Q to K (below), marking a bicyclic peptide; LINEAR has no brackets.
(§8) Where the first naming reader finds the target: passage: Binding affinities were assessed for each peptide by surface plasmon resonance (SPR) against biotinylated B7-H3.

biotinylated B7-H3 = target: T2, biotinylated B7-H3 (Homo sapiens, UniProt Q5ZPR3); test: Surface Plasmon Resonance (SPR) analysis against biotinylated B7-H3; conditions: biotinylated B7-H3, 25° C., 1:1 binding kinetics model
T2 sequence (Q5ZPR3 29-534): T1 sequence (Q5ZPR3 29-534)
Text: as §6, with “FIGS.” for “The patent's description of the figure: FIGS.”
Surface Plasmon Resonance (SPR) analysis. Binding kinetics between our selected peptide (and variants) and biotinylated B7-H3 (B7-H3b) were assessed through SPR analysis using a BIACORE 8K SPR system (GE Healthcare). The running buffer was 1×PBS pH7.5, 0.05% TWEEN® 20 and all analysis was carried out at 25° C. B7-H3b was loaded onto a NeutrAvidin SPR Chip (Series S Sensor Chip NA, 29407997, Cytiva) at a flow rate of […] to a surface density of 1000-1500 response units. Analyte was then injected over a series of five concentrations and quantified by BIACORE single-cycle kinetics method. For our selected peptide (B1.1) and the Met9Nle variant a range of 7.5, 15, 30, 60, 120 nM were run. For the linear variant concentrations of 50, 100, 200, 400, 800 nM were run. Binding sonograms were generated using a standard 1:1 binding kinetics model and kinetics constants determined using standard BIACORE evaluation software.

B7-H3 [6] = test: kd (s^-1)
Text: as §5
Head of the field: kd (s^-1)
as §6, §7, §8

human and murine B7-H3 [7] = test: KD (nM)
Method: as §1
Head of the field: KD (nM)
as §2, §3, §4

binding affinity towards B7-H3 (biotinylated B7-H3)	Molecule	binding in validation assay (B7-H3 [1])	remaining at 24 h [2]	subcellular localization (Rab5a, Rab7a, Lamp1 reporters) [3]	Ka (M^-1s^-1) (human and murine B7-H3 [4])	other results
	CC[C@H](C)[C@@H]1NC(=O)[C@@H](NC(C)=O)CSCc2cccc(c2)CSC[C@@H](C(=O)NCC(=O)O)NC(=O)[C@@H]2CCCN2C(=O)[C@H](CC(C)C)NC(=O)[C@H](Cc2ccccc2)NC(=O)[C@H](CCCNC(=N)N)NC(=O)C2CCCN2C(=O)[C@H]([C@@H](C)CC)NC(=O)[C@H](CCCNC(=N)N)NC(=O)[C@H]([C@@H](C)O)NC(=O)[C@H](Cc2c[nH]c3ccccc23)NC(=O)[C@H](C(C)C)NC1=O (stereo partly drawn) [JP3, N-terminal acetylated CIVWTRIPRFLPCG] (Ac-CIVWTRI[ξP]RFLPCG-OH; linker 1-13 via mXylylene)	strong B7-H3 binders	~40%	Co-localization of JP3 and Rab5a		
	CC[C@H](C)[C@@H]1NC(=O)[C@H](CC(=O)O)NC(=O)[C@H](CCCNC(=N)N)NC(=O)[C@H]([C@@H](C)CC)NC(=O)[C@H]([C@@H](C)O)NC(=O)[C@H](Cc2c[nH]c3ccccc23)NC(=O)[C@@H](NC(C)=O)CSCc2cccc(c2)CSC[C@@H](C(=O)NCC(=O)O)NC(=O)[C@H](CCCNC(=N)N)NC(=O)[C@H]([C@@H](C)O)NC(=O)CNC(=O)[C@H](CC(N)=O)NC1=O [JP5, N-terminal acetylated CWTIRDINGTRCG] (Ac-CWTIRDINGTRCG-OH; linker 1-12 via mXylylene; N-terminus and C-terminus assumed)	strong B7-H3 binders	80%	predominantly cell surface localization of JP5 was observed with some rare evidence of endosomal uptake	1.25e^5 and 1.02e^5	
similar	CCCC[C@@H]1NC(=O)[C@H](CO)NC(=O)[C@H](Cc2c[nH]cn2)NC(=O)[C@@H]2CSSC[C@H](NC(=O)[C@H]([C@@H](C)O)NC(=O)[C@H](Cc3ccc(O)cc3)NC(=O)[C@H](Cc3ccccc3)NC1=O)C(=O)N[C@H](C(=O)N[C@@H](CO)C(=O)NCC(N)=O)CCCCNC(=O)CC[C@H](NC(=O)[C@H](CC(C)C)NC(=O)[C@H](C)NC(=O)[C@H](Cc1c[nH]c3ccccc13)NC(C)=O)C(=O)N[C@@H](CC(C)C)C(=O)N2 [Met9Nle variant, acWALQLCHSNleFYTCKSG] (Ac-WALELCHS[Nle]FYTCKSG-NH2; lactam 4-14; disulfide 6-13)					ka (M^-1s^-1) (B7-H3 [5]): 9.55e^5; pKd (biotinylated B7-H3; read-out: binding affinity towards B7-H3): 7.33; kd (s^-1) (B7-H3 [6]): 4.48e^-2
	acWALQLCHSNleFYTCKSGK(AZO)G [OXIDIZED B1.1 | 296]					pKd (human and murine B7-H3 [7]): 6.79
	acWALQLCHSNleFYTCKSGK(AZO)G [REDUCED B1.1 | 294]				7.444e^7	
no detectable binding interaction	linear variant of B1.1: linear form of B1.1 without lactam and disulfide cyclization (WALQLCHSMFYTCKSG-NH2; cysteine pairing not given here)					binding affinity towards B7-H3 (biotinylated B7-H3; listed as linear precursor peptide): did not bind
